According to USRE39591E1, “6-O-substituted ketolides having antibacterial activity” (Abbott Laboratories, priority 1996, dated 2007):
Converted amounts (≈) assume the structure as drawn.

Tested on: up to 32 different microorganisms
Test: in vitro antibacterial activity (MIC), agar dilution on Brain Heart Infusion (BHI) agar with Steers replicator
Format: cell-based
Conditions: unit assumed
Description: Representative compounds of the present invention were assayed in vitro for antibacterial activity as follows: Twelve petri dishes containing successive aqueous dilutions of the test compound mixed with 10 mL of sterilized Brain Heart Infusion (BHI) agar (Difco 0148-01-5) were prepared. Each plate was inoculated with 1:100 (or 1:10 for slow-growing strains, such as Micrococcus and Streptococcus) dilutions of up to 32 different microorganisms, using a Steers replicator block. The inoculated plates were incubated at 35°-37° C. for 20 to 24 hours. In addition, a control plate, using BHI agar containing no test compound, was prepared and incubated at the beginning and end of each test.
An additional plate containing a compound having known susceptibility patterns for the organisms being tested and belonging to the same antibiotic class as the test compound was also prepared and incubated as a further control, as well as to provide test-to-test comparability. Erythromycin A was used for this purpose.
After incubation, each plate was visually inspected. The minimum inhibitory concentration (MIC) was defined as the lowest concentration of drug yielding no growth, a slight haze, or sparsely isolated colonies on the inoculum spot as compared to the growth control.

| SMILES | MIC (organism code AA) [µg/mL] | MIC (organism code BB) [µg/mL] | MIC (organism code CC) [µg/mL] | MIC (organism code DD) [µg/mL] | MIC (organism code EE) [µg/mL] | MIC (organism code FF) [µg/mL] | MIC (organism code GG) [µg/mL] | MIC (organism code HH) [µg/mL] | MIC (organism code II) [µg/mL] | MIC (organism code JJ) [µg/mL] | MIC (organism code KK) [µg/mL] | MIC (organism code LL) [µg/mL] | MIC (organism code MM) [µg/mL] | MIC (organism code NN) [µg/mL] | MIC (organism code OO) [µg/mL] | MIC (organism code PP) [µg/mL] | MIC (organism code QQ) [µg/mL] | MIC (organism code RR) [µg/mL] | MIC (organism code SS) [µg/mL] | MIC (organism code TT) [µg/mL] | other results |
| --- | --- | --- | --- | --- | --- | --- | --- | --- | --- | --- | --- | --- | --- | --- | --- | --- | --- | --- | --- | --- | --- |
| CC[C@H]1OC(=O)[C@H](C)C(=O)[C@H](C)[C@@H](O[C@@H]2O[C@H](C)C[C@H](N(C)C)[C@H]2O)[C@@](C)(OCC=NOCc2ccc3ccccc3n2)C[C@@H](C)C(=O)[C@H](C)[C@H]2NC(=O)O[C@@]21C [Example 232, Compound of Formula (IX): L is CO, T is NH, R is —CH2CH═NOCH2(2-quinolyl)] | 0.1 | 0.1 | > 100 | 0.2 | 0.2 | 0.1 | > 100 | 0.2 | 0.02 | 0.02 | 0.02 | 0.02 | > 100 | 0.2 | 0.02 | 0.2 | 25 | 0.39 | > 100 | > 100 | MIC (organism code UU): 0.39 µg/mL; MIC (organism code VV): 0.05 µg/mL; MIC (organism code WW): 2 µg/mL; MIC (organism code XX): 0.03 µg/mL; MIC (organism code YY): 0.03 µg/mL; MIC (organism code ZZ): > 128 µg/mL; MIC (organism code ZZA): 0.5 µg/mL |
| CCC1OC(=O)C(C)C(=O)C(C)C(OC2OC(C)CC(N(C)C)C2O)C(C)(OCC=Cc2cnc3ccc(NC(C)=O)cc3c2)CC(C)C(=O)C(C)C2NC(=O)OC12C (stereo not drawn) [Example 203] | 0.2 (≈ 0.243 µM) | 0.39 (≈ 0.474 µM) | > 100 | 0.2 (≈ 0.243 µM) | 0.2 (≈ 0.243 µM) | 0.39 (≈ 0.474 µM) | > 100 | 0.2 (≈ 0.243 µM) | 0.2 (≈ 0.243 µM) | ≤ 0.005 | 0.01 (≈ 0.0122 µM) | 0.01 (≈ 0.0122 µM) | 1.56 (≈ 1.9 µM) | 0.39 (≈ 0.474 µM) | 0.02 (≈ 0.0243 µM) | 0.39 (≈ 0.474 µM) | 100 (≈ 122 µM) | 0.39 (≈ 0.474 µM) | 100 (≈ 122 µM) | > 100 | MIC (organism code UU): 6.2 µg/mL (≈ 7.53 µM); MIC (organism code VV): 0.39 µg/mL (≈ 0.474 µM); MIC (organism code WW): 4 µg/mL (≈ 4.86 µM); MIC (organism code XX): 0.03 µg/mL (≈ 0.0365 µM); MIC (organism code YY): 0.03 µg/mL (≈ 0.0365 µM); MIC (organism code ZZ): 16 µg/mL (≈ 19.4 µM); MIC (organism code ZZA): 2 µg/mL (≈ 2.43 µM) |
| CCC1OC(=O)C(C)C(=O)C(C)C(OC2OC(C)CC(N(C)C)C2O)C(C)(OCC#Cc2cnc3ccccc3c2)CC(C)C(=O)C(C)C2NC(=O)OC12C (stereo not drawn) [Example 247, Compound of Formula (IX): L is CO, T is NH, R is —CH2—C≡C-(3-quinolyl)] | 0.05 | 0.05 | > 100 | 0.05 | 0.05 | 0.05 | > 100 | 0.05 | 0.02 | ≤ 0.005 | 0.01 | 0.01 | 0.39 | 0.1 | 0.01 | 0.02 | 25 | 0.2 | 25 | > 100 | MIC (organism code UU): 0.39 µg/mL; MIC (organism code VV): 0.01 µg/mL; MIC (organism code WW): 1 µg/mL; MIC (organism code XX): ≤ 0.004 µg/mL; MIC (organism code YY): ≤ 0.004 µg/mL; MIC (organism code ZZ): 4 µg/mL; MIC (organism code ZZA): 0.25 µg/mL |
| CCC1OC(=O)C(C)C(=O)C(C)C(OC2OC(C)CC(N(C)C)C2O)C(C)(OCC=Cc2cnc3ccc(O)cc3c2)CC(C)C(=O)C(C)C2NC(=O)OC12C (stereo not drawn) [Example 208, R is —CH2CH═CH-(6-hydroxy-3-quinolyl)] | 0.1 (≈ 0.128 µM) | 0.39 (≈ 0.499 µM) | > 100 | 0.2 (≈ 0.256 µM) | 0.2 (≈ 0.256 µM) | 0.2 (≈ 0.256 µM) | > 100 | 0.2 (≈ 0.256 µM) | 0.1 (≈ 0.128 µM) | 0.01 (≈ 0.0128 µM) | 0.01 (≈ 0.0128 µM) | 0.01 (≈ 0.0128 µM) | 0.78 (≈ 0.998 µM) | 0.39 (≈ 0.499 µM) | 0.01 (≈ 0.0128 µM) | 0.1 (≈ 0.128 µM) | 25 (≈ 32 µM) | 0.39 (≈ 0.499 µM) | 50 (≈ 63.9 µM) | > 100 | MIC (organism code UU): 0.78 µg/mL (≈ 0.998 µM); MIC (organism code VV): 0.2 µg/mL (≈ 0.256 µM); MIC (organism code WW): 2 µg/mL (≈ 2.56 µM); MIC (organism code XX): 0.03 µg/mL (≈ 0.0384 µM); MIC (organism code YY): 0.03 µg/mL (≈ 0.0384 µM); MIC (organism code ZZ): 4 µg/mL (≈ 5.12 µM); MIC (organism code ZZA): 1 µg/mL (≈ 1.28 µM) |
